pIC50: −log10 of the molar value.
What was measured:
GSK3α = GSK3α (Homo sapiens, UniProt P49840); assay: GSK3α in vitro enzymatic assay (Kinase-Glo Max luminescence); format: biochemical; conditions: recombinant human GSK3, 10 μM ATP; approximate values; read-out: Potency GSK3alpha
Description: (§1) Enzymatic activities of compounds of the present disclosure can be tested using recombinant human GSK3 in an in vitro enzymatic assay to determine the ability of the compounds of the present disclosure to inhibit GSK3α and GSK3β.
(§2) The assay was performed using Kinase-Glo® Max luminescence kinase assay kit (Promega). The assay measures kinase activity by quantitating the amount of ATP remaining in solution following a kinase reaction. The luminescent signal from the assay is correlated with the amount of ATP present and is inversely correlated with the amount of kinase activity.
(§3) To perform the assay, compounds were diluted in 10% DMSO and 5 μl of the dilution was added to a 50 μl reaction so that the final concentration of DMSO was 1% in all of reactions. The enzymatic reactions were conducted at 30° C. for 40 minutes. The 50 μl reaction mixture contained 40 mM Tris, pH 7.4, 10 mM MgCl2, 0.1 mg/ml BSA, 2 mM DTT, 0.1 mg/ml GSK tide substrate, 10 uM ATP and GSK3. After the enzymatic reaction, 50 μl of Kinase-Glo Max Luminescence kinase assay solution (Promega) was added to each reaction and plates were incubated for 15 minutes at room temperature. Luminescence signal was measured using a BioTek Synergy 2 microplate reader.
(§4) Kinase activity assays were performed in duplicate at each concentration. The luminescence data were analyzed using the computer software, GraphPad Prism. The difference between luminescence intensities in the absence of Kinase (Lut) and in the presence of Kinase (Luc) was defined as 100% activity (Lut-Luc). Using luminescence signal (Lu) in the presence of the compound, percent activity was calculated as: % activity={(Lut-Lu)/(Lut-Luc)}×100%, where Lu=the luminescence intensity in the presence of the compound (all percent activities below zero were shown zero in the table).
(§5) The values of percent activity versus a series of compound concentrations were then plotted using non-linear regression analysis of Sigmoidal dose-response curve generated with the equation Y=B+(T−B)/1+10((LogEC50−X)×Hill Slope), where Y=percent activity, B=minimum percent activity, T=maximum percent activity, X=logarithm of compound and Hill Slope=slope factor or Hill coefficient. The ICs, value was determined by the concentration causing a half-maximal percent activity.

GSK3β = GSK3β (Homo sapiens, UniProt P49841); assay: GSK3β in vitro enzymatic assay (Kinase-Glo Max luminescence); format: biochemical; conditions: recombinant human GSK3, 10 μM ATP; approximate values; read-out: Potency GSK3beta
Sequence of GSK3β (P49841 whole entry): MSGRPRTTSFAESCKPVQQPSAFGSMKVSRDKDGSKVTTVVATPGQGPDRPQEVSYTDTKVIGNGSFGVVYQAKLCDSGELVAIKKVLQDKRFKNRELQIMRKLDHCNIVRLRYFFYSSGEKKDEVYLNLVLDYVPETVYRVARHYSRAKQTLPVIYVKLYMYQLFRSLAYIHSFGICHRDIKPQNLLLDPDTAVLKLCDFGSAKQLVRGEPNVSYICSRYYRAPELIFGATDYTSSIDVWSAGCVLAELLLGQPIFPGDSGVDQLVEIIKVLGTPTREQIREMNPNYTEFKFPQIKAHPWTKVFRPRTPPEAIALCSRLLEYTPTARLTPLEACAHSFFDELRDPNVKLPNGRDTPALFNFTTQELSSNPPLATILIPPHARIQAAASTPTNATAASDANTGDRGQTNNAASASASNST
Description: as §1, §2, §3, §4, §5

LSD-1 = LSD-1 (Homo sapiens, UniProt O60341); assay: LSD-1 A-screen (AlphaScreen) demethylase enzymatic assay; format: biochemical; conditions: approximate values; for inhibition at 50 µM: read-out: Potency LSD-1 % Inhibition at 50 μM
Description: (§6) Enzymatic activities of compounds of the present disclosure can be tested with recombinant human LSD using an in vitro enzymatic assay to determine the ability of the compounds of the present disclosure to inhibit LSD-1 and LSD2. Examples of the assay are provided below.
(§7) All of the enzymatic reactions were conducted in duplicate at room temperature for 60 minutes in a 10 μL mixture containing assay buffer, histone H3 peptide substrate, demthylase enzyme, and the test compound. These 10 μL reactions were carried out in wells of a 384-well Optiplate (PerkinElmer). The dilution of the compounds was first performed in 100% DMSO with the highest concentration at 5 mM Each intermediate compound dilution (in 100% DMSO) was then directly diluted 30× fold into assay buffer for 3.3× concentration (DMSO). […] From this intermediate step, 3 μL of compound was added to 4 μL of demethylase enzyme dilution was incubated for 30 minutes at room temperature. After this incubation, 3 μL of peptide substrate was added. The final DMSO concentration was 1%. After enzymatic reactions, 5 μL of anti-Mouse or anti-Rabbit Acceptor beads (PerkinElmer, diluted 1:500 with 1× detection buffer) and […] (BPS, diluted 1:800 with 1× detection buffer) were added to the reaction mix. After brief shaking, the plate was incubated for 30 minutes. Finally, 10 μL of AlphaScreen™ Streptavidin-conjugated donor beads (Perkin, diluted 1:125 with 1× detection buffer) were added. After 30 minutes, the samples were measured in an AlphaScreen microplate reader (EnSpire Alpha 2390 Multilabel Reader, Perkin Elmer).
(§8) Enzyme activity assays were performed in duplicates at each concentration. The A-screen intensity data were analyzed and compared. In the absence of the compound, the intensity in each data set was defined as 100% (Ce) activity. In the absence of enzyme, the intensity in each data set was defined as 0% (C0) activity. The percent activity in the presence of each compound was calculated according to the following equation: % activity=(C−C0)/(Ce−C0), where C=the intensity in the presence of the compound.
as §5, with “value” for “values”, “was” for “were”, “IC50” for “ICs,”

LSD2 = target: T1, LSD2 (Homo sapiens, UniProt Q8NB78); assay: LSD2 A-screen (AlphaScreen) demethylase enzymatic assay; format: biochemical; conditions: 50 μM compound, approximate values; for inhibition at 50 µM: read-out: Potency LSD-2 % Inhibition at 50 μM
T1 sequence (Q8NB78 1-822): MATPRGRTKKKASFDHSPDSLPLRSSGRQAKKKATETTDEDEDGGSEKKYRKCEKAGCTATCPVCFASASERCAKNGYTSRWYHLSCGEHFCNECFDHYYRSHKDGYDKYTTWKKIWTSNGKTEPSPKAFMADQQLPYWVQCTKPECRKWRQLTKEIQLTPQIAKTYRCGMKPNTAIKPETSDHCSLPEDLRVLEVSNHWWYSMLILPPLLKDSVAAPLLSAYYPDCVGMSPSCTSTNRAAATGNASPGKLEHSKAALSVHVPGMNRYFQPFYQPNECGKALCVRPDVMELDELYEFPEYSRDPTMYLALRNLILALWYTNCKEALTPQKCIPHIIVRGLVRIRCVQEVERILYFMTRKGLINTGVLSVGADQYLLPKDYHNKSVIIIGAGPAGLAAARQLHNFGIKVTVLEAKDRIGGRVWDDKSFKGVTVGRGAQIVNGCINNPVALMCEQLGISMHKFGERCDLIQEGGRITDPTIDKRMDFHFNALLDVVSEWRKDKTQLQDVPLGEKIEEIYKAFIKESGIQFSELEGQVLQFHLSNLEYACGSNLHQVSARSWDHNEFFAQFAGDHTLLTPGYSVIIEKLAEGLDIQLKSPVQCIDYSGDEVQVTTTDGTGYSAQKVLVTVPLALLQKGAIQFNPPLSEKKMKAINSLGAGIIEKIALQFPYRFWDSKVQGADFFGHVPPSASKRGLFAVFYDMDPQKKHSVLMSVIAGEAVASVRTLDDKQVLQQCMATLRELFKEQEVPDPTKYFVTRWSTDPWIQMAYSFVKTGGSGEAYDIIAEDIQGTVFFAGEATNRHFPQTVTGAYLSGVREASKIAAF
Description: as §6, §7, §8
as §5, with “value” for “values”, “was” for “were”, “IC50” for “ICs,”

[1] = system: Lgr5+ cells (cochlear stem cells); assay: Lgr5+ assay: expansion of Lgr5-positive cochlear cells in 3D culture; format: cell-based, mouse
Source text: “Stem Cell Proliferation Assay” as used herein is an assay to determine the capacity for agent(s) to induce the creation of stem cells from a starting cell population. In an exemplary Stem Cell Proliferation Assay, the number of cells for an initial cell population is harvested from a Lgr5-GFP mouse such as a B6.129P2-Lgr5tm1(cre/ERT2)Cle/J mouse (also known as Lgr5-EGFP-IRES-creERT2 or Lgr5-GFP mouse, Jackson Lab Stock No: 008875) between the age of 3 to 7 days, by isolating the organ of Corti sensory epithelium and dissociating the epithelium into single cells. Approximately 5000 cells are entrapped in 40 μl of culture substrate (for example, Matrigel (Corning, Growth Factor Reduced)) and placed at the center of wells in a 24-well plate with 500 μl of an appropriate culture media, growth factors and agent being tested. Appropriate culture media and growth factors include Advanced DMEM/F12 with media supplements (1×N2, 1×B27, 2 mM Glutamax, 10 mM HEPES, 1 mM N-acetylcysteine, and 100 U/ml penicillin/100 μg/ml streptomycin) and growth factors (50 ng/ml EGF, 50 ng/ml bFGF, and 50 ng/ml IGF-1) as well as the agent(s) being assessed are added into each well. Cells are cultured for 10 days in a standard cell culture incubator at 37° C. and 5% CO2, with media change every 2 days. The number of Lgr5^+ cells is quantified by counting the number of cells identified as Lgr5+ in an in vitro Lgr5 activity assay (i.e., an assay mearing in vitro Lgr5 activity). The fraction of cells that are Lgr5^+ is quantified by dividing the number of cells identified as Lgr5^+ in a cell population by the total number of cells present in the cell population. The average Lgr5^+ activity of a population is quantified by measuring the average mRNA expression level of Lgr5 of the population normalized using suitable and unregulated references or housekeeping genes (e.g., Hprt). The number of hair cells in a population may be measured by staining with hair cell marker (e.g., MyosinVIIa), or using an endogenous reporter of hair cell genes (e.g., Pou4f3-GFP, Atoh1-nGFP) and analyzing using flow cytometry. The fraction of cells that are hair cells is quantified by dividing the number of cells identified as hair cells in a cell population by the total number of cells present in the cell population. Lgr5 activity can be measured by qPCR.
The compounds of the present disclosure were used in Lgr5-EGFP-IRES-Cre-ER mice (Barker et al., 2007) to analyze the effects of small molecules on cochlear stem cell expansion.
Isolation of stem cells from the inner ear: All animal studies were conducted under an approved institutional protocol according to National Institutes of Health guidelines. For experiments with neonatal mice (postnatal days 1-3), the cochleae were dissected in Hank's Balanced Salt Solution (HBSS) and the organs of Corti were separated from the stria vascularis and the modiolus. The organs of Corti were then treated with Cell Recovery Solution (Corning) for 1 hour to separate cochlear epithelium from the underlying mesenchyme. Epithelia were then collected and treated with TrypLE (Life Technologies) for 15-20 minutes at 37° C. Single cells obtained by mechanical trituration were filtered (40 μm) and suspended in Matrigel® (Corning) for 3D culture.
Cells were cultured in a 1:1 mixture of DMEM and F12, supplemented with Glutamax (GIBCO), N2, B27 (Invitrogen), EGF (50 ng/ml; Chemicon), bFGF (50 ng/ml; Chemicon), IGF1 (50 ng/ml; Chemicon) and the composition provided herein. Medium was changed every other day.
Lgr5-positive cells were quantified after 10 days (D10) in culture in multiple conditions. Cell colonies were dissociated into single cells using TrypLE (Gibco). The cells were then stained with propidium iodide (P1) and were analyzed using a flow cytometer for Lgr5-GFP expression. The number of GFP-positive cells and the percentage of GFP-positive cells were quantified. […]

[2] = in a background of growth factors, compared to CHIR-99021 and its combinations (figures)

Sequence of GSK3α (P49840 whole entry): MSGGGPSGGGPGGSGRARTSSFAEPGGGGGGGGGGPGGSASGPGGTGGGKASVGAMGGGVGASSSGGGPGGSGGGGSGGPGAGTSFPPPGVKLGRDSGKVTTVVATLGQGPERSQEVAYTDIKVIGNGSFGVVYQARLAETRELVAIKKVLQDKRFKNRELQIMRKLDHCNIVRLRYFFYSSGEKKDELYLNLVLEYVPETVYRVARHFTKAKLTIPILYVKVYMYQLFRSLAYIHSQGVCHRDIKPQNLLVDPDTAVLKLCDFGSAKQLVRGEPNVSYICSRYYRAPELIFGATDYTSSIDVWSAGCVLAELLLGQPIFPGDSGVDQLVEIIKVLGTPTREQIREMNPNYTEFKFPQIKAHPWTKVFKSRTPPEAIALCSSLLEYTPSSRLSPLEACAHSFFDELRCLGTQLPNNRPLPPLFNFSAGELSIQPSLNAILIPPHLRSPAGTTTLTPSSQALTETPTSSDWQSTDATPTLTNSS

CCn1cc(C(=O)O)c(=O)c2c(F)cc(NCc3ccccc3)cc21 [Compound I-55]
pIC50 (GSK3α): < 5.00 | pIC50 (GSK3β): < 5.00

CCn1cc(C(=O)O)c(=O)c2c(N)cc(NC3CCCCC3)cc21 [Compound I-58]
pIC50 (GSK3α): < 5.00 | pIC50 (GSK3β): < 5.00 | inhibition at 50 µM (LSD-1; 50 μM compound): 77% | inhibition at 50 µM (LSD2): 7%

CCn1cc(C(=O)O)c(=O)c2c(N)c(F)c(N[C@@H]3C[C@H]3c3ccccc3)cc21 (single isomer, unassigned) [Compound I-63]
pIC50 (GSK3α): < 5.00 | pIC50 (GSK3β): < 5.00 | Potency LSD-1 % Inhibition at 50 μM (LSD-1; 50 μM compound, 50 µM): 26% @ 50 μM | Potency LSD-2 % Inhibition at 50 μM (LSD2; 50 µM): 6%

CCn1cc(C(=O)O)c(=O)c2c(N)c(F)c(N[C@@H]3C[C@H]3c3ccccc3)cc21 (relative stereo) [Compound I-20]
Potency (Lgr5+ activity) ([1]; effective concentration for Lgr5+ expansion, 10 days culture with EGF, bFGF, IGF1, approximate values): 1.1 µM | Lgr5 GFP+ progenitor cell proliferation (Lgr5 positive cell count) [1, 2]: generate Lgr5 GFP+ progenitor cell proliferation | enrichment of Lgr5 GFP+ cochlear progenitor cells (percent of Lgr5 positive cells) [1, 2]: generates enrichment of Lgr5 GFP+ cochlear progenitor cells

CCn1cc(C(=O)O)c(=O)c2c(N)cc(NCCc3ccccc3)cc21 [Compound I-56]
pIC50 (GSK3α): < 5.00 | pIC50 (GSK3β): < 5.00 | inhibition at 50 µM (LSD-1; 50 μM compound): 56% | inhibition at 50 µM (LSD2): 28%

CCn1cc(C(=O)O)c(=O)c2c(N)c(F)c(OCCc3ccccc3)cc21 [Compound I-52]
pIC50 (GSK3α): < 5.00 | pIC50 (GSK3β): < 5.00 | inhibition at 50 µM (LSD-1; 50 μM compound): 0% | inhibition at 50 µM (LSD2): 3%

Nc1c(F)c(NCCN[C@@H]2C[C@H]2c2ccccc2)cc2c1c(=O)c(C(=O)O)cn2CCO (relative stereo) [Compound I-90]
pIC50 (GSK3α): 6.00 | pIC50 (GSK3β): 5.80 | pIC50 (LSD-1; read-out: Potency LSD-1 IC50): 5.07 | inhibition at 50 µM (LSD2): 8%

CCn1cc(C(=O)O)c(=O)c2c(N)cc(NC3CCCCC3)c(F)c21 [Compound I-64]
pIC50 (GSK3α): < 5.00 | pIC50 (GSK3β): < 5.00 | inhibition at 50 µM (LSD-1; 50 μM compound): 72% | inhibition at 50 µM (LSD2): 2%

Source: patent publication US20230058189A1, “QUINOLIN-4-ONE AND 4(1H)-CINNOLINONE COMPOUNDS AND METHODS OF USING SAME” (Frequency Therapeutics, Inc., priority 2019, published 2023)
